{"source": "patent US20220009931A1", "about": "“NOVEL UREA 6,7-DIHYDRO-4H-PYRAZOLO[1,5-A]PYRAZINES ACTIVE AGAINST THE HEPATITIS B VIRUS (HBV)” (AICURIS GMBH & CO. KG, priority 2018, published 2022)", "test_system": "HBV", "details": "Hepatitis B virus, HePAD38, 144 h, read-out: Cell Activity"}
{"compound": "CC1Cn2nc(N)cc2CN1C(=O)Nc1ccc(F)c(Cl)c1", "note": "(stereo not shown) [Example 7, 2-amino-N-(3-chloro-4-fluorophenyl)-6-methyl-4H,5H,6H,7H-pyrazolo[1,5-a]pyrazine-5-carboxamide]", "values": [{"measurement": "EC50", "result": "1 to 10", "unit": "µM"}]}
